# Results published in ChEMBL document CHEMBL1201862, “PubChem BioAssay data set” (2004).
#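 Results reflect a 48-hour exposure of cells in 96-well plates to compound at five concentrations. The concentration for 50% growth inhibition is given as GI50.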 Active and inactive are the calls of the source. Cut-off read from the data, not from the text of the source: active = GI50 up to about 1.1 µM and inactive = higher. Peptide text beside a SMILES is read from it. * marks the point of attachment. Boc = CC(C)(C)OC(=O)*
# What was measured:
# Experiment in all cases: NCI-60 cell line screen, 48 h
# SF-539 = test system: SF-539
# SK-OV-3 = test system: SK-OV-3
# SF-268 = test system: SF-268
# NCI-H226 = test system: NCI-H226
# M14 = test system: M14
# SNB-75 = test system: SNB-75
# IGROV-1 = test system: IGROV-1
# A549 = test system: A549
# OVCAR-8 = test system: OVCAR-8
# TK-10 = test system: TK-10
# HCT-15 = test system: HCT-15
# K562 = test system: K562
# MCF7 = test system: MCF7
# OVCAR-3 = test system: OVCAR-3
# HOP-92 = test system: HOP-92
# HOP-62 = test system: HOP-62
# A498 = test system: A498
# SK-MEL-5 = test system: SK-MEL-5
# COLO 205 = test system: COLO 205
# HL-60 = test system: HL-60
SMILES,GI50 (SF-539),GI50 (SK-OV-3),GI50 (SF-268),GI50 (NCI-H226),GI50 (M14),GI50 (SNB-75),GI50 (IGROV-1),GI50 (A549),GI50 (OVCAR-8),GI50 (TK-10),GI50 (HCT-15) [µM],GI50 (K562),GI50 (MCF7),GI50 (OVCAR-3),GI50 (HOP-92),GI50 (HOP-62),GI50 (A498),GI50 (SK-MEL-5),GI50 (COLO 205),GI50 (HL-60)
Cn1cnnc1SC(F)(F)c1nc2ccccc2o1,> 100 µM (inactive),> 100 µM (inactive),> 100 µM (inactive),> 100 µM (inactive),> 100 µM (inactive),> 100 µM (inactive),> 100 µM (inactive),> 100 µM (inactive),> 100 µM (inactive),> 100 µM (inactive),> 100,> 100 µM (inactive),> 100 µM (inactive),> 100 µM (inactive),> 100 µM (inactive),> 100 µM (inactive),> 100 µM (inactive),> 100 µM (inactive),> 100 µM (inactive),
C[C@]12CC[C@H]3[C@@H](CC=C4C[C@@H](O)CC[C@@]43C)[C@@H]1CC[C@@H]2N(CCO)CCO,54.7 µM (inactive),23.3 µM (inactive),36 µM (inactive),> 100 µM (inactive),48.4 µM (inactive),72.8 µM (inactive),50.7 µM (inactive),42 µM (inactive),88.5 µM (inactive),42.3 µM (inactive),71.4,71.9 µM (inactive),33.2 µM (inactive),34.8 µM (inactive),64 µM (inactive),51.3 µM (inactive),16.1 µM (inactive),63.5 µM (inactive),44.3 µM (inactive),
O=C(/C=C/c1ccc(Cl)cc1)c1nc2ccccc2[nH]1,6.98 µM (inactive),21.7 µM (inactive),14.2 µM (inactive),27.5 µM (inactive),31.8 µM (inactive),11.7 µM (inactive),38.6 µM (inactive),25.4 µM (inactive),34.8 µM (inactive),14.5 µM (inactive),17.5,5.58 µM (inactive),2.22 µM (inactive),12.9 µM (inactive),> 100 µM (inactive),17.6 µM (inactive),37.8 µM (inactive),40.2 µM (inactive),16.6 µM (inactive),
CN(C)c1c(C2CC(O)C(CO)O2)c(=O)c1=O (stereo unspecified),> 100 µM (inactive),> 100 µM (inactive),> 100 µM (inactive),77.1 µM (inactive),> 100 µM (inactive),> 100 µM (inactive),> 100 µM (inactive),> 100 µM (inactive),> 100 µM (inactive),> 100 µM (inactive),> 100,> 100 µM (inactive),> 100 µM (inactive),> 100 µM (inactive),> 100 µM (inactive),> 100 µM (inactive),> 100 µM (inactive),,,> 100 µM (inactive)
COc1ccc(/C=C2\C[C@H]3[C@@H]4CC=C5C[C@@H](O)CC[C@]5(C)[C@H]4CC[C@]3(C)\C2=N\O)cc1,21.8 µM (inactive),34.9 µM (inactive),4.95 µM (inactive),19.3 µM (inactive),12.7 µM (inactive),,38.2 µM (inactive),7.98 µM (inactive),,27.6 µM (inactive),6,4.85 µM (inactive),3.62 µM (inactive),6.89 µM (inactive),25.6 µM (inactive),55.6 µM (inactive),25.9 µM (inactive),5.04 µM (inactive),10 µM (inactive),3.17 µM (inactive)
CC(C)(C)[Si](C)(C)OCC#C[C@@]1(O)CCCCC1CC(Sc1ccccc1)Sc1ccccc1 (stereo partly specified),,15.7 µM (inactive),,15.3 µM (inactive),18.2 µM (inactive),14.8 µM (inactive),16.1 µM (inactive),14.9 µM (inactive),16.5 µM (inactive),17.9 µM (inactive),14.9,14.2 µM (inactive),10.2 µM (inactive),12.9 µM (inactive),15.6 µM (inactive),16.9 µM (inactive),16.3 µM (inactive),15.7 µM (inactive),16.3 µM (inactive),18.8 µM (inactive)
CSCCC(NC(=O)C(CC(C)C)NC(=O)CNC(=O)OC(C)(C)C)C(=O)N(C)C (stereo not drawn) (Boc-Gly-Leu-Met-NMe2; configuration not given here),> 100 µM (inactive),> 100 µM (inactive),> 100 µM (inactive),> 100 µM (inactive),> 100 µM (inactive),0.0272 µM (active),> 100 µM (inactive),> 100 µM (inactive),> 100 µM (inactive),> 100 µM (inactive),> 100,> 100 µM (inactive),> 100 µM (inactive),,> 100 µM (inactive),,> 100 µM (inactive),> 100 µM (inactive),> 100 µM (inactive),> 100 µM (inactive)
Cc1nnc(N)nc1/C=C/c1c(O)ccc2ccccc12,,27.5 µM (inactive),28.7 µM (inactive),21.5 µM (inactive),19.4 µM (inactive),,13.7 µM (inactive),34 µM (inactive),35.2 µM (inactive),54.8 µM (inactive),17.3,38.5 µM (inactive),32.8 µM (inactive),,21.3 µM (inactive),33.9 µM (inactive),21.3 µM (inactive),25.7 µM (inactive),44.4 µM (inactive),28.2 µM (inactive)
NC1=NN(c2ccccc2)C2(O)c3ccncc3C3=NN(c4ccccc4)C(=O)C132 (stereo unspecified),> 100 µM (inactive),> 100 µM (inactive),> 100 µM (inactive),> 100 µM (inactive),> 100 µM (inactive),> 100 µM (inactive),> 100 µM (inactive),> 100 µM (inactive),> 100 µM (inactive),,> 100,> 100 µM (inactive),> 100 µM (inactive),> 100 µM (inactive),> 100 µM (inactive),,> 100 µM (inactive),> 100 µM (inactive),> 100 µM (inactive),> 100 µM (inactive)
NC(=S)N/N=C1\CCc2ccccc2C1,> 100 µM (inactive),> 100 µM (inactive),> 100 µM (inactive),32.2 µM (inactive),> 100 µM (inactive),,> 100 µM (inactive),> 100 µM (inactive),> 100 µM (inactive),> 100 µM (inactive),> 100,> 100 µM (inactive),54.2 µM (inactive),> 100 µM (inactive),> 100 µM (inactive),> 100 µM (inactive),> 100 µM (inactive),,> 100 µM (inactive),34.7 µM (inactive)
O=C1N(c2ccccc2)C2(c3ccccc3)CC3CCCC13S2 (stereo unspecified),> 100 µM (inactive),> 100 µM (inactive),58.1 µM (inactive),63.4 µM (inactive),> 100 µM (inactive),,78 µM (inactive),53 µM (inactive),> 100 µM (inactive),0.249 µM (active),65.3,38.7 µM (inactive),42.1 µM (inactive),55.5 µM (inactive),67.5 µM (inactive),> 100 µM (inactive),75 µM (inactive),33.3 µM (inactive),43 µM (inactive),26.2 µM (inactive)
